Details: Liquid, Buoyancy - hydrostatic balance with magnetic suspension - one sinker

C [methane]
Details	mass density [kg/m3]
105 K, 185.5 kPa	432.098
105 K, 478.95 kPa	432.339
105 K, 973.88 kPa	432.743
105 K, 1970.8 kPa	433.554
105 K, 5044.6 kPa	435.981
115 K, 479.33 kPa	417.827
115 K, 973.28 kPa	418.319
115 K, 1970 kPa	419.298
125 K, 477.88 kPa	402.38
125 K, 972.71 kPa	402.99
125 K, 1970.4 kPa	404.194
125 K, 5112.4 kPa	407.803
135 K, 783.75 kPa	386.1
135 K, 1001.2 kPa	386.441
135 K, 2014.3 kPa	387.992
135 K, 5208.9 kPa	392.557

Reference: the NIST ThermoML archive (doi:10.1016/j.jct.2015.09.034)
